Results: patent US12145947B2, “Pyrimidine based modulators and uses thereof” (Quanta Therapeutics, Inc., priority 2022, dated 2024)
pIC50: −log10 of the molar value.

Tests used:
KRAS G12D/RAF1 = target: T1, KRAS G12D/RAF1 (Homo sapiens, UniProt P01116, G12D); test: Protein-protein interaction (PPI) HTRF assay KRAS G12D/RAF1; assay type: binding; conditions: Table 4
T1 construct: His6-MBP (N, cleaved yes); made in house; host or cells: E. coli
In short: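 Biotinylated human KRAS (1-169; wt, G12D, G12V) or wt NRAS, GppNHp-loaded, pre-incubated 30 min RT with compound and streptavidin-d2, then His-RAF1 RBD (52-131) with anti-6His Tb cryptate added for 1 h RT. HTRF 665/615 ratio normalized to no compound (0%) and untagged RAF1 (100%); IC50.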

[1] = target: T2, GST-tagged KRAS-G12D (2-169) (Homo sapiens, UniProt P01116, G12D); test: Nucleotide exchange assay (NEA), SOS-mediated, HTRF, KRAS G12D; assay type: biochemical; conditions: Table 4; IC50 extracted at 30 min
T2 construct: GST-tagged KRAS-G12D (2-169, Reaction Biology, MSC-11-539); purchased Reaction Biology MSC-11-539 (KRAS G12D); MSC-11-502 (SOS1cat)
In short: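 GST-KRAS-G12D (2-169, 5 nM final) with Tb-anti-GST donor was preincubated with compound 1 h at RT (pH 7.3 HEPES buffer, MgCl2, DTT), then SOScat (564-1049, 20 nM) and GTP-DY-647P1 (150 nM) were added. HTRF was read at RT; % inhibition vs DMSO/no-SOS blank, 4-parameter IC50 taken at 30 min.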

T1 sequence (P01116 with tags, fused parts or gaps isoform P01116-2 G12D): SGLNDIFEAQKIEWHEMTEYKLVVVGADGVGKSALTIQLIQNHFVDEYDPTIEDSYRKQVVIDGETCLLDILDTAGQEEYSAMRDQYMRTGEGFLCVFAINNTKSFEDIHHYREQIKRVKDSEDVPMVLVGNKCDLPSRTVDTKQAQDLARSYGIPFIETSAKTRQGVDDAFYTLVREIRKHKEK
T2 sequence (P01116 2-169 isoform P01116-2 G12D): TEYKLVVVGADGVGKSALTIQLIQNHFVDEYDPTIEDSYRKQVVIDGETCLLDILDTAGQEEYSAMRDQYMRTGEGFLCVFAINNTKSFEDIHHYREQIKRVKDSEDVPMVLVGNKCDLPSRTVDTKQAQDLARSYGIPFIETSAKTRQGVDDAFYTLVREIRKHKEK

Row | SMILES | pIC50 (KRAS G12D/RAF1) | pIC50 [1]
1 | N#Cc1c(N2C[C@H]3CC[C@@H](C2)N3)nc(OCC2(CN3CCOCC3)CC2(F)F)nc1N1CC2(CCc3sc(N)c(C#N)c32)C1 (stereo partly drawn) [Compound 68, 2-amino-1-[5-cyano-2-[[2,2-difluoro-1-(morpholinomethyl)cyclopropyl]methoxy]-6-[(1R,5S)-3,8-diazabicyclo[3.2.1]octan-3-yl]pyrimidin-4-yl]spiro[5,6-dihydrocyclopenta[b]thiophene-4,3′-azetidine]-3-carbonitrile] | 5.00 to 6.00 | > 8.00
2 | N#Cc1c(N2C[C@H]3CC[C@@H](C2)N3)nc(OCC2(CN3CCSCC3)CC2)nc1N1CC2(CCc3sc(N)c(C#N)c32)C1 [Compound 72, 2-amino-1′-[5-cyano-6-[(1R,5S)-3,8-diazabicyclo[3.2.1]octan-3-yl]-2-[[1-(thiomorpholinomethyl)cyclopropyl]methoxy]pyrimidin-4-yl]spiro[5,6-dihydrocyclopenta[b]thiophene-4,3′-azetidine]-3-carbonitrile] | 6.00 to 7.00 | > 8.00
3 | C[C@H]1COCCN1CC1(COc2nc(N3C[C@H]4CC[C@@H](C3)N4)c(C#N)c(N3CC4(CCc5sc(N)c(C#N)c54)C3)n2)CC1 [Compound 77, 2-amino-1′-[5-cyano-6-[(1R,5S)-3,8-diazabicyclo[3.2.1]octan-3-yl]-2-[[1-[[(3S)-3-methylmorpholin-4-yl]methyl]cyclopropyl]methoxy]pyrimidin-4-yl]spiro[5,6-dihydrocyclopenta[b]thiophene-4,3′-azetidine]-3-carbonitrile] | 4.00 to 5.00 | > 8.00
4 | N#Cc1c(N2C[C@H]3CC[C@@H](C2)N3)nc(OCC2(CN3C[C@@H](F)[C@@H](F)C3)CC2)nc1N1CC2(CCc3sc(N)c(C#N)c32)C1 [Compound 78, 2-amino-1′-[5-cyano-6-[(1R,5S)-3,8-diazabicyclo[3.2.1]octan-3-yl]-2-[[1-[[(3S,4R)-3,4-difluoropyrrolidin-1-yl]methyl]cyclopropyl]methoxy]pyrimidin-4-yl]spiro[5,6-dihydrocyclopenta[b]thiophene-4,3′-azetidine]-3-carbonitrile] | < 4.00 | 7.00 to 8.00
5 | C[C@@H]1COCCN1CC1(COc2nc(N3C[C@H]4CC[C@@H](C3)N4)c(C#N)c(N3CC4(CCc5sc(N)c(C#N)c54)C3)n2)CC1 [Compound 82, 2-amino-1′-[5-cyano-6-[(1R,5S)-3,8-diazabicyclo[3.2.1]octan-3-yl]-2-[[1-[[(3R)-3-methylmorpholin-4-yl]methyl]cyclopropyl]methoxy]pyrimidin-4-yl]spiro[5,6-dihydrocyclopenta[b]thiophene-4,3′-azetidine]-3-carbonitrile] | 4.00 to 5.00 | 6.00 to 7.00
6 | CN1CCC[C@H]1COc1nc(N2C[C@H]3CC[C@@H](C2)N3)c(C#N)c(N2CC3(CCc4sc(N)c(C#N)c43)C2)n1 [Compound 83, 2-amino-1′-[5-cyano-6-[(1R,5S)-3,8-diazabicyclo[3.2.1]octan-3-yl]-2-[[(2S)-1-methylpyrrolidin-2-yl]methoxy]pyrimidin-4-yl]spiro[5,6-dihydrocyclopenta[b]thiophene-4,3′-azetidine]-3-carbonitrile] | 6.00 to 7.00 | > 8.00
7 | N#Cc1c(N2C[C@H]3CC[C@@H](C2)N3)nc(OCC2(c3ccccc3)CC2)nc1N1CC2(CCc3sc(N)c(C#N)c32)C1 [Compound 84, 2-amino-1′-[5-cyano-6-[(1R,5S)-3,8-diazabicyclo[3.2.1]octan-3-yl]-2-[(1-phenylcyclopropyl)methoxy]pyrimidin-4-yl]spiro[5,6-dihydrocyclopenta[b]thiophene-4,3′-azetidine]-3-carbonitrile] | 6.00 to 7.00 | > 8.00
8 | N#Cc1c(N2C[C@H]3CC[C@@H](C2)N3)nc(OCc2[nH]ncc2F)nc1N1CC2(CCc3sc(N)c(C#N)c32)C1 [Compound 90, 2-amino-1′-[5-cyano-6-[(1R,5S)-3,8-diazabicyclo[3.2.1]octan-3-yl]-2-[(4-fluoro-1H-pyrazol-5-yl)methoxy]pyrimidin-4-yl]spiro[5,6-dihydrocyclopenta[b]thiophene-4,3′-azetidine]-3-carbonitrile] | 4.00 to 5.00 | 7.00 to 8.00
9 | N#Cc1c(N2C[C@H]3CC[C@@H](C2)N3)nc(OCC2(CN3CCS(=O)(=O)CC3)CC2)nc1N1CC2(CCc3sc(N)c(C#N)c32)C1 [Compound 95, 2-amino-1′-[5-cyano-6-[(1R,5S)-3,8-diazabicyclo[3.2.1]octan-3-yl]-2-[[1-[(1,1-dioxo-1,4-thiazinan-4-yl)methyl]cyclopropyl]methoxy]pyrimidin-4-yl]spiro[5,6-dihydrocyclopenta[b]thiophene-4,3′-azetidine]-3-carbonitrile] | 5.00 to 6.00 | > 8.00
10 | N#Cc1c(N2C[C@H]3CC[C@@H](C2)N3)nc(OCc2n[nH]cc2Br)nc1N1CC2(CCc3sc(N)c(C#N)c32)C1 [Compound 102, 2-amino-1′-[2-[(4-bromo-1H-pyrazol-3-yl)methoxy]-5-cyano-6-[(1S,5R)-3,8-diazabicyclo[3.2.1]octan-3-yl]pyrimidin-4-yl]spiro[5,6-dihydrocyclopenta[b]thiophene-4,3′-azetidine]-3-carbonitrile] | 4.00 to 5.00 | > 8.00
11 | N#Cc1c(N2C[C@H]3CC[C@@H](C2)N3)nc(OCc2cn[nH]n2)nc1N1CC2(CCc3sc(N)c(C#N)c32)C1 [Compound 103, 2-amino-1′-[5-cyano-6-[(1R,5S)-3,8-diazabicyclo[3.2.1]octan-3-yl]-2-(2H-triazol-4-ylmethoxy)pyrimidin-4-yl]spiro[5,6-dihydrocyclopenta[b]thiophene-4,3′-azetidine]-3-carbonitrile] | 4.00 to 5.00 | 7.00 to 8.00
12 | N#Cc1c(N2C[C@H]3CC[C@@H](C2)N3)nc(OCc2n[nH]cc2Cl)nc1N1CC2(CCc3sc(N)c(C#N)c32)C1 [Compound 104, 2-amino-1′-[2-[(4-chloro-1H-pyrazol-3-yl)methoxy]-5-cyano-6-[(1R,5S)-3,8-diazabicyclo[3.2.1]octan-3-yl]pyrimidin-4-yl]spiro[5,6-dihydrocyclopenta[b]thiophene-4,3′-azetidine]-3-carbonitrile] | 4.00 to 5.00 | > 8.00
13 | N#Cc1c(N2C[C@H]3CC[C@@H](C2)N3)nc(OCc2cc(Cl)[nH]n2)nc1N1CC2(CCc3sc(N)c(C#N)c32)C1 [Compound 105, 2-amino-1′-[2-[(5-chloro-1H-pyrazol-3-yl)methoxy]-5-cyano-6-[(1R,5S)-3,8-diazabicyclo[3.2.1]octan-3-yl]pyrimidin-4-yl]spiro[5,6-dihydrocyclopenta[b]thiophene-4,3′-azetidine]-3-carbonitrile] | 4.00 to 5.00 | > 8.00
14 | N#Cc1c(N2C[C@H]3CC[C@@H](C2)N3)nc(OCc2n[nH]cc2C(F)(F)F)nc1N1CC2(CCc3sc(N)c(C#N)c32)C1 [Compound 106, 2-amino-1′-[5-cyano-6-[(1R,5S)-3,8-diazabicyclo[3.2.1]octan-3-yl]-2-[[4-(trifluoromethyl)-1H-pyrazol-3-yl]methoxy]pyrimidin-4-yl]spiro[5,6-dihydrocyclopenta[b]thiophene-4,3′-azetidine]-3-carbonitrile] | 4.00 to 5.00 | 7.00 to 8.00
15 | Cc1nc(COc2nc(N3C[C@H]4CC[C@@H](C3)N4)c(C#N)c(N3CC4(CCc5sc(N)c(C#N)c54)C3)n2)n[nH]1 [Compound 107, 2-amino-1′-[5-cyano-6-[(1R,5S)-3,8-diazabicyclo[3.2.1]octan-3-yl]-2-[(5-methyl-1H-1,2,4-triazol-3-yl)methoxy]pyrimidin-4-yl]spiro[5,6-dihydrocyclopenta[b]thiophene-4,3′-azetidine]-3-carbonitrile] | 4.00 to 5.00 | 7.00 to 8.00
